Peptide text beside a SMILES is read from it. * marks the point of attachment. Biotin = O=C1N[C@H]2[C@H](CS[C@H]2CCCCC(=O)*)N1
Legend:
Format in all cases: biochemical
[1] = molecular target: T1, human plasma FXIII (Homo sapiens, UniProt P00488); assay: Crosslinking of α2AP13-24 into fibrin by plasma FXIII in FXIII-free fibrinogen
T1 construct: purchased American Diagnostica; host or cells: purified from human plasma
T1 sequence (P00488 39-732 limits assumed): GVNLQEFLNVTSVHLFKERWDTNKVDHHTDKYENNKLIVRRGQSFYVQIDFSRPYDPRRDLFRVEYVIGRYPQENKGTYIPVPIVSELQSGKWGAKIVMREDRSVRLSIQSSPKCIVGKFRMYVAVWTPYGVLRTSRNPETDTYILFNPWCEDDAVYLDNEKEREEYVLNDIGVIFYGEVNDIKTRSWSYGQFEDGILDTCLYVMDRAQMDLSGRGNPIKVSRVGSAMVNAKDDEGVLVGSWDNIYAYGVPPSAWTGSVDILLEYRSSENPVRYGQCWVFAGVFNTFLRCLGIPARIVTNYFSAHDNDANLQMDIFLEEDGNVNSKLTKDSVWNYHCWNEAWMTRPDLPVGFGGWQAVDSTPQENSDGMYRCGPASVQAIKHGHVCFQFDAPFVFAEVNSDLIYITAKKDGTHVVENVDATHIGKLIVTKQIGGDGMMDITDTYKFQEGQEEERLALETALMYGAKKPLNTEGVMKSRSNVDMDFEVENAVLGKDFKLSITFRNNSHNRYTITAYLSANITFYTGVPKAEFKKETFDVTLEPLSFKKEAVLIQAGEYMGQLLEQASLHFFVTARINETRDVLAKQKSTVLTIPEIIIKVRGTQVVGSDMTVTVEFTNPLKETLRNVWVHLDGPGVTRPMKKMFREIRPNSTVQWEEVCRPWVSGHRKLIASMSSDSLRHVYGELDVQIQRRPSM
Protocol: Fibrin clots (50 μl) were prepared in duplicate by mixing FXIII-free fibrinogen (2 mg/ml final), α2AP13-24 (SEQ ID NO:2; 0.5 mM final), CaCl2 (2 mM final), human plasma FXIII (100 nM/L final) and guinea pig tissue transglutaminase (100 nM/L final) and thrombin (1 U/ml final) and incubating at 37° C. for 2 hours. The crosslinking of α2AP13-24 was detected as described above.

[2] = molecular target: T2, FXIIIa (Homo sapiens, UniProt P00488); assay: Dose-dependent crosslinking of α2AP13-24 into fibrin clots; settings: fibrin clots, compared to control clots
T2 construct: purchased American Diagnostica
T2 sequence (P00488 39-732 limits assumed): T1 sequence (P00488 39-732 limits assumed)
Protocol: Experiments were performed to determine how long FXIIIa in clots could crosslink various substrates such as human ^125I -α2AP, α2AP13-24 (SEQ ID NO:2), and 5-(biotinamido)pentylamine, into fibrin. In a typical experiment, clots were prepared (50 μl final volume) in duplicate by combining fibrinogen (2 mg/ml final), CaCl2 (2 mM final), buffer (Tris-buffered saline pH 7.4) and thrombin (1 U/ml) and incubating at 37° C. Synchronous with the addition of thrombin, or up to 240 minutes afterwards, the FXIIIa substrates 5-(biotinamido)pentylamine (0.5 mM final), ^125I -α2AP (70 μg/ml final), and α2AP13-24 (0 to 1 mM final) were mixed and added to the clot. […] Crosslinked ^125I-α2AP was detected and quantitated by phosphorimaging. Samples containing crosslinked α2AP13-24 and pentylamine substrates were electroblotted to PVDF membranes and detected by ^125I-streptavidin followed by phosphorimaging or by streptavidin-peroxidase followed by the developing agents 5-bromo-4-chloro-3-indolyl phosphate-nitro blue tetrazolium using methods known in the art. In experiments examining the effect of specific amino acid residues on the crosslinking of the α2AP13-24 peptide (SEQ ID NO:2) to fibrin, crosslinking was detected by immunoblotting with an anti-peptide antibody directed against this epitope followed by ^125I-protein A and phosphorimaging. […]

[3] = molecular target: T3, factor XIIIa-mediated crosslinking of α2AP to fibrin (Homo sapiens, UniProt P00488); assay: Inhibition of α2AP-fibrin crosslinking in plasma clots by α2AP polypeptide (immunoblot)
T3 construct: from tissue; host or cells: human plasma clotted with thrombin and calcium
T3 sequence (P00488 39-732 limits assumed): T1 sequence (P00488 39-732 limits assumed)
Protocol: To inhibit the crosslinking of α2AP to fibrin, a polypeptide spanning the crosslinking site on the amino terminus of α2AP (SEQ ID NO:2) was synthesized. The purity of the polypeptide was analyzed by high performance liquid chromatography, and its composition was verified by amino acid analysis on a Waters Picotag system. The α2AP polypeptide was then solubilized in 20 mM Tris-HCl and the pH was adjusted to 7.0. Various concentrations of polypeptide (7.5 μl, 0-5 mM final) were mixed with 20 μl of plasma, 1.25 μl of calcium chloride (0.4 mM), and 1.25 μof thrombin (10.0 units/ml) and clotted for 90 minutes at 37° C. as described above. The clots were solubilized and analyzed by immunoblotting as described above.

CC(C)C[C@H](NC(=O)[C@H](CC(C)C)NC(=O)[C@@H](NC(=O)[C@H](CC(C)C)NC(=O)[C@@H]1CCCN1C(=O)[C@H](CO)NC(=O)[C@@H](NC(=O)[C@H](CCC(N)=O)NC(=O)[C@H](CCC(=O)O)NC(=O)[C@H](CCC(N)=O)NC(=O)[C@@H](N)CC(N)=O)C(C)C)[C@@H](C)O)C(=O)N[C@@H](CCCCNC(=O)CCCC[C@@H]1SC[C@@H]2NC(=O)N[C@@H]21)C(=O)O [α2AP13-24, NQEQVSPLTLLK] (H-NQEQVSPLTLLK(Biotin)-OH)
crosslinking of peptide to fibrin ([1]; equivalent amount of purified exogenous FXIIIa added to FXIIIa-deficient fibrinogen): significantly more crosslinking
crosslinking of peptide to fibrin ([1]; purified FXIIIa-deficient fibrinogen, no enzyme added): little, if any, significant crosslinking
lowest concentration at which crosslinking is seen [2]: 1.3 µM
α2AP-fibrin crosslinking ([3]; peptide concentrations of 1.5 mM and 3.0 mM): little α2AP crosslinking was visible
formation of fibrin γ-γ crosslinks ([3]; plasma clots formed with α2AP polypeptide): no apparent effect
peptide concentration giving progressively less α2AP-fibrin crosslinking ([3]; plasma clots, 90 minutes at 37° C.): ≥ 0.38 mM

Reference: patent publication US6534035B1, “Methods of inhibiting clot formation” (President and Fellows of Harvard College, priority 1998, dated 2003)
